Results as given in ChEMBL document CHEMBL3217615, “Novel 3,5-bis(arylidiene)-4-piperidone based monocarbonyl analogs of curcumin: anticancer activity evaluation and mode of action study” (2014).

Experiments:
Type in all cases: functional
786-0 = test: Growth inhibition of human 786-0 cells assessed as cell growth at 10^-8 M after 48 hrs by sulforhodamine B assay; settings: 786-0, 48 h
[1] = Growth inhibition of human MOLT4 cells assessed as cell growth at 10^-8 M after 48 hrs by sulforhodamine B assay; settings: MOLT-4, 48 h
SF-268 = test: Growth inhibition of human SF268 cells assessed as cell growth at 10^-8 M after 48 hrs by sulforhodamine B assay; settings: SF-268, 48 h
SK-MEL-28 = test: Growth inhibition of human SK-MEL-28 cells assessed as cell growth at 10^-8 M after 48 hrs by sulforhodamine B assay; settings: SK-MEL-28, 48 h
NCI-H522 [2] = test: Growth inhibition of human NCI-H522 cells assessed as cell growth at 10^-4 M after 48 hrs by sulforhodamine B assay; settings: NCI-H522, 48 h, read-out: Activity
SN12C = test: Growth inhibition of human SN12C cells assessed as cell growth at 10^-4 M after 48 hrs by sulforhodamine B assay; settings: read-out: Activity
ACHN = test: Growth inhibition of human ACHN cells after 48 hrs by sulforhodamine B assay
SW-620 = test: Growth inhibition of human SW620 cells assessed as cell growth at 10^-8 M after 48 hrs by sulforhodamine B assay; settings: SW-620, 48 h
[3] = Growth inhibition of human SF295 cells assessed as cell growth at 10^-7 M after 48 hrs by sulforhodamine B assay; settings: SF-295, 48 h, read-out: Activity
HCT-116 [4] = test: Growth inhibition of human HCT116 cells after 48 hrs by sulforhodamine B assay; settings: HCT-116, 48 h
MDA-MB-435 = test: Growth inhibition of human MDA-MB-435 cells assessed as cell growth at 10^-7 M after 48 hrs by sulforhodamine B assay; settings: MDA-MB-435, 48 h, read-out: Activity
MCF7 [5] = test: Growth inhibition of human MCF7 cells assessed as cell growth at 10^-6 M after 48 hrs by sulforhodamine B assay; settings: MCF7, 48 h, read-out: Activity
M14 [6] = test: Growth inhibition of human M14 cells assessed as cell growth at 10^-4 M after 48 hrs by sulforhodamine B assay; settings: M14, 48 h, read-out: Activity
[7] = Growth inhibition of human UACC257 cells assessed as cell growth at 10^-5 M after 48 hrs by sulforhodamine B assay; settings: UACC-257, 48 h, read-out: Activity
IGROV-1 = test: Growth inhibition of human IGROV1 cells assessed as cell growth at 10^-7 M after 48 hrs by sulforhodamine B assay; settings: IGROV-1, 48 h, read-out: Activity
NCI-H522 [8] = test: Growth inhibition of human NCI-H522 cells after 48 hrs by sulforhodamine B assay; settings: NCI-H522, 48 h
MCF7 [9] = test: Growth inhibition of human MCF7 cells after 48 hrs by sulforhodamine B assay; settings: MCF7, 48 h
T47D = test: Growth inhibition of human T47D cells assessed as cell growth at 10^-7 M after 48 hrs by sulforhodamine B assay; settings: read-out: Activity
CAKI-1 = test: Growth inhibition of human CAKI-1 cells assessed as cell growth at 10^-7 M after 48 hrs by sulforhodamine B assay; settings: CAKI-1, 48 h, read-out: Activity
CCRF-CEM = test: Growth inhibition of human CCRF-CEM cells assessed as cell growth at 10^-4 M after 48 hrs by sulforhodamine B assay; settings: read-out: Activity
SK-OV-3 = test: Growth inhibition of human SKOV3 cells after 48 hrs by sulforhodamine B assay; settings: SK-OV-3, 48 h
[10] = Growth inhibition of human LOXIMVI cells assessed as cell growth at 10^-7 M after 48 hrs by sulforhodamine B assay; settings: LOX IMVI, read-out: Activity
[11] = Growth inhibition of human RXF393 cells assessed as cell growth at 10^-4 M after 48 hrs by sulforhodamine B assay; settings: RXF 393, 48 h, read-out: Activity
Malme-3M = test: Growth inhibition of human MALME-3M cells assessed as cell growth at 10^-6 M after 48 hrs by sulforhodamine B assay; settings: read-out: Activity
U-251 = test: Growth inhibition of human U251 cells assessed as cell growth at 10^-5 M after 48 hrs by sulforhodamine B assay; settings: U-251, 48 h, read-out: Activity
[12] = Growth inhibition of human UACC257 cells assessed as cell growth at 10^-7 M after 48 hrs by sulforhodamine B assay; settings: UACC-257, 48 h, read-out: Activity
M14 [13] = test: Growth inhibition of human M14 cells assessed as cell growth at 10^-6 M after 48 hrs by sulforhodamine B assay; settings: M14, 48 h, read-out: Activity
HCT-116 [14] = test: Growth inhibition of human HCT116 cells assessed as cell growth at 10^-4 M after 48 hrs by sulforhodamine B assay; settings: HCT-116, 48 h, read-out: Activity
HOP-62 = test: Growth inhibition of human HOP62 cells assessed as cell growth at 10^-7 M after 48 hrs by sulforhodamine B assay; settings: HOP-62, 48 h, read-out: Activity
SK-MEL-2 = test: Growth inhibition of human SK-MEL-2 cells assessed as cell growth at 10^-6 M after 48 hrs by sulforhodamine B assay; settings: SK-MEL-2, 48 h, read-out: Activity
COLO 205 = test: Induction of apoptosis in human COLO205 cells assessed as caspase 9 activation at 10 uM by FLICA
[15] = Growth inhibition of human HCT15 cells assessed as cell growth at 10^-4 M after 48 hrs by sulforhodamine B assay; settings: HCT-15, 48 h, read-out: Activity
[16] = Growth inhibition of human HCT15 cells assessed as cell growth at 10^-6 M after 48 hrs by sulforhodamine B assay; settings: HCT-15, 48 h, read-out: Activity
RPMI-8226 = test: Growth inhibition of human RPMI8226 cells assessed as cell growth at 10^-6 M after 48 hrs by sulforhodamine B assay; settings: RPMI-8226, 48 h, read-out: Activity
[17] = read-out: pLC50 (the source's name) (converted)
[18] = read-out: LC50 (the source's name)

SMILES: Cc1ccc(S(=O)(=O)N2C/C(=C\c3cc(F)cc(F)c3)C(=O)/C(=C/c3cc(F)cc(F)c3)C2)cc1
- GI50 (786-0): 589 nM
- LC50 (786-0): 4900 nM
- growth at 0.01 µM (786-0; read-out: Activity): 104%
- TGI (786-0; read-out: pTGI (converted)): 1910 nM
- GI50 [1]: 302 nM
- growth at 0.01 µM ([1]; read-out: Activity): 100%
- CC50 [1, 17]: > 100000 nM
- TGI ([1]; read-out: pTGI (converted)): 2090 nM
- GI50 (SF-268): 427 nM
- LC50 (SF-268): 14500 nM
- growth at 0.01 µM (SF-268; read-out: Activity): 98%
- TGI (SF-268; read-out: pTGI (converted)): 2140 nM
- GI50 (SK-MEL-28): 468 nM
- growth at 0.01 µM (SK-MEL-28; read-out: Activity): 100%
- CC50 (SK-MEL-28; [17]): 4790 nM
- TGI (SK-MEL-28; read-out: pTGI (converted)): 1780 nM
- growth at 100 µM (NCI-H522 [2]): -94%
- growth at 100 µM (SN12C): -96%
- GI50 (ACHN): 246 nM
- TGI (ACHN): 622 nM
- CC50 (ACHN; [18]): 2390 nM
- GI50 (SW-620): 72.4 nM
- LC50 (SW-620): 1450 nM
- growth at 0.01 µM (SW-620; read-out: Activity): 99%
- TGI (SW-620; read-out: pTGI (converted)): 302 nM
- growth at 0.1 µM [3]: 92%
- GI50 (HCT-116 [4]): 209 nM
- TGI (HCT-116 [4]): 543 nM
- CC50 (HCT-116 [4]; [18]): 1940 nM
- growth at 0.1 µM (MDA-MB-435): 92%
- growth at 1 µM (MCF7 [5]): 12%
- growth at 100 µM (M14 [6]): -86%
- growth at 10 µM [7]: -57%
- growth at 0.1 µM (IGROV-1): 106%
- GI50 (NCI-H522 [8]): 316 nM
- TGI (NCI-H522 [8]): 962 nM
- CC50 (NCI-H522 [8]; [18]): 3850 nM
- GI50 (MCF7 [9]): 175 nM
- TGI (MCF7 [9]): 1450 nM
- CC50 (MCF7 [9]; [18]): 6880 nM
- growth at 0.1 µM (T47D): 101%
- growth at 0.1 µM (CAKI-1): 94%
- growth at 100 µM (CCRF-CEM): -29%
- GI50 (SK-OV-3): 1840 nM
- TGI (SK-OV-3): 5620 nM
- CC50 (SK-OV-3; [18]): 37200 nM
- growth at 0.1 µM [10]: 92%
- growth at 100 µM [11]: -95%
- growth at 1 µM (Malme-3M): -15%
- growth at 10 µM (U-251): -97.9%
- growth at 0.1 µM [12]: 87%
- growth at 1 µM (M14 [13]): 12%
- growth at 100 µM (HCT-116 [14]): -92%
- growth at 0.1 µM (HOP-62): 110%
- growth at 1 µM (SK-MEL-2): 89%
- Activity (COLO 205): 40.5%
- growth at 100 µM [15]: -65%
- growth at 1 µM [16]: 5%
- growth at 1 µM (RPMI-8226): -16%
